Earlier results on two molecules are cited in patent US20060014828A1 (priority 2004, published 2006).

Where a name gives a salt, the structure may show the parent alone.

Regarding `O=[N+]([O-])O[C@H]1CO[C@H]2[C@@H]1OC[C@H]2O[N+](=O)[O-]` [isosorbide dinitrate, 1,4,3,6-dianhydro-D-glucitol-2,5-dinitrate], the “Solubility in organic solvents such as ethanol, ether and chloroform” value is “freely soluble”; the Solubility in water entry is reported as “sparingly soluble”.
For `NNc1nncc2ccccc12` [Hydralazine hydrochloride], the Solubility in alcohol entry is “slightly soluble”, the Solubility in ether entry is reported as “very slightly soluble” and the Solubility in water entry was “soluble”.
